# From PubChem BioAssay AID1944 (The Scripps Research Institute Molecular Screening Center, 2009)
# Active and inactive are the calls of the source. How the calls were made is not given here.
# Biological target: Replicase polyprotein 1ab (Severe acute respiratory syndrome coronavirus) (UniProt P0C6X7)
# Assay: papain-like protease inhibition, dose response, biochemical, luminescence, counter-screen for SARS-CoV 3CLpro inhibitor project (AID 1944)
# Conditions: SARS-CoV PLpro enzymatic assay
row,Compound,IC50
1,COc1cccc(C(C(=O)NCC2CCCO2)N(C(=O)Cn2nnc3ccccc32)c2ccc(NC(C)=O)cc2)c1 (configuration not stated),> 59.6 µM (inactive)
2,NC(=O)CCn1c(C(=O)c2ccc(Cl)cc2)c2ccccc2[n+]1[O-],> 59.6 µM (inactive)
3,O=C(O)c1[nH]c2ccccc2c1C(c1cc(Br)ccc1O)c1c(C(=O)O)[nH]c2ccccc12,9.17 µM
4,O=C(/C=C/c1ccccc1Cl)Nc1cccnc1,0.0388 µM
5,CCn1nc(-c2ccccc2)nc2c(=O)n(C)c(=O)nc1-2,0.165 µM
6,CC(=O)c1c(OC(=O)c2ccco2)c2ccccc2n1C,> 59.6 µM (inactive)
7,CC(C)C[C@H](NC(=O)c1nc[nH]c1C(=O)NCc1ccc(CNC(=O)OC(C)(C)C)cc1)C(=O)OC(C)(C)C,> 59.6 µM (inactive)
8,CCC(C)c1ccc(N(C(=O)c2ccco2)C(C(=O)NC2CCCC2)c2cccnc2)cc1 (configuration not stated),inactive
9,O=Cc1cn(Cc2ccccc2)nc1-c1cccnc1,> 59.6 µM (inactive)
10,O=C(N/N=C\c1c(O)ccc2ccccc12)c1cncc(Br)c1,8.21 µM
11,CCc1ccc2c(c1)C(NC(C)=O)C(=O)N2CCN1CCOCC1 (configuration not stated),> 59.6 µM (inactive)
12,COc1ccc2cc(C3(C)NC(=O)N(CC(=O)NCc4ccco4)C3=O)ccc2c1 (configuration not stated),> 59.6 µM (inactive)
13,O=C(c1cc(=O)[nH]c2ccccc12)N1CCN(c2ccccc2)CC1,> 59.6 µM (inactive)
14,Cc1ccc(C(=O)c2c3ccccc3[n+]([O-])n2CCC(N)=O)cc1,8.04 µM
15,CC(C)c1ccc(N(C(=O)c2ccco2)C(C(=O)NC2CCCC2)c2cccnc2)cc1 (configuration not stated),> 59.6 µM (inactive)
16,CC(=O)NC1C(=O)N(CCN2CCOCC2)c2ccc(Br)cc21 (configuration not stated),> 59.6 µM (inactive)
17,Cc1ccc(-c2cc(NC(=O)c3ccccc3[N+](=O)[O-])n[nH]2)cc1,inactive
18,Cc1ccc(C(=O)n2cnc3ccccc32)cc1C,9.11 µM
19,COc1ccc(C2C(O)C(c3c[nH]c4ccccc34)=NN2C(=O)CCl)cc1 (configuration not stated),> 59.6 µM (inactive)
20,O=C1NC(=O)N(c2ccccc2F)C(=O)/C1=C/c1cn(CC(=O)N2CCOCC2)c2ccccc12,> 59.6 µM (inactive)
21,O=C(OCC(=O)N1c2ccccc2Sc2ccccc21)c1cccnc1,> 59.6 µM (inactive)
22,COC(=O)c1ccc(OC(=O)CN2C(=O)c3ccccc3C2=O)cc1,inactive
23,COc1cccc(/C=N/NC(=S)Nc2cccnc2)c1,inactive
24,C[C@@]12C(=O)N(c3cccc(Br)c3)C(=O)N1[C@H](c1ccc(Cl)cc1)[C@@H]1C(=O)N(C3CCCCC3)C(=O)[C@@H]12,> 59.6 µM (inactive)
25,Cc1cc(=O)oc2cc(OC(=O)c3ccco3)ccc12,> 59.6 µM (inactive)

row,Compound,IC50
1,COc1cccc(C(C(=O)Nc2ccc(F)cc2)N(C(=O)Cn2nnc3ccccc32)C2CC2)c1 (configuration not stated),> 59.6 µM (inactive)
2,NC(=O)CCn1c(C(=O)c2cccc([N+](=O)[O-])c2)c2ccccc2[n+]1[O-],> 59.6 µM (inactive)
3,Cc1cc(NC(=O)COC(=O)C(Nc2ccc(C(F)(F)F)cc2Cl)C(C)C)no1 (configuration not stated),> 59.6 µM (inactive)
4,Cc1cccc(N2CCN(C(=O)c3cc(=O)[nH]c4ccccc34)CC2)c1C,> 59.6 µM (inactive)
5,CC1CCC2C(=O)N(c3cc(Cl)ccc3OC(=O)c3ccco3)C(=O)C2C1 (configuration not stated),> 59.6 µM (inactive)
6,O=C(CSc1ccccn1)Nc1nonc1[N+](=O)[O-],> 59.6 µM (inactive)
7,O=C(Oc1ccc(Br)cc1C(=O)/C=C/c1ccccc1F)c1ccco1,> 59.6 µM (inactive)
8,COc1cc(/C=N\NC(=O)Cn2nnc3ccccc32)cc(OC)c1OC,> 59.6 µM (inactive)
9,O=C1C(=O)N(C/C=C/c2ccccc2)c2ccccc21,> 59.6 µM (inactive)
10,COc1cc(C2CC(c3cccs3)=NN2C(=O)CCl)ccc1OC(F)F (configuration not stated),> 59.6 µM (inactive)
11,COc1ccccc1OCCNC(=O)c1cc(=O)[nH]c2ccccc12,> 59.6 µM (inactive)
12,CC(=O)Nc1ccc(N(C(=O)Cn2nnc3ccccc32)C(C(=O)NC2CCCC2)c2ccc(O)c(O)c2)cc1 (configuration not stated),> 59.6 µM (inactive)
13,O=C(/C=C/c1ccc(Cl)c([N+](=O)[O-])c1)NCc1cccnc1,> 59.6 µM (inactive)
14,O=C(NCc1ccco1)C(c1ccco1)N(C(=O)Cn1nnc2ccccc21)c1ccc2c(c1)CCC2 (configuration not stated),> 59.6 µM (inactive)
15,O=C1C(=O)N(CCCc2ccccc2)c2ccccc21,inactive
16,CC(=O)n1cc(N(C(=O)CCl)c2ccc([N+](=O)[O-])cc2)c2ccccc21,> 59.6 µM (inactive)
17,Cc1ccc(C(=O)c2c3ccc(C(F)(F)F)cc3[n+]([O-])n2CCC(N)=O)cc1,> 59.6 µM (inactive)
18,Cc1cc(C)c(C)c(S(=O)(=O)N2CCN(C(=O)c3cc(=O)[nH]c4ccccc34)CC2)c1C,> 59.6 µM (inactive)
19,O=C(CCl)N(CCc1ccccc1)CCc1ccccc1,inactive
20,COc1ccc2c(c1)C(=O)C(=O)N2CC1COc2ccccc2O1 (configuration not stated),> 59.6 µM (inactive)
21,O=C(Cc1ccc(Cl)c(Cl)c1)Nc1cccnc1,inactive
22,CCN(CC)C(=O)Cn1cc(/C=C2\C(=O)NC(=O)N(c3ccccc3F)C2=O)c2ccccc21,> 59.6 µM (inactive)
23,COc1cccc(C(C(=O)NCc2ccco2)N(Cc2ccco2)C(=O)Cn2nnc3ccccc32)c1 (configuration not stated),> 59.6 µM (inactive)
24,Cn1nc(-c2ccc(Cl)cc2)nc2c(=O)n(C)c(=O)nc1-2,0.111 µM
25,CCC(C)(C)NC(=O)C(c1ccc(O)cc1)N(C(=O)Cn1nnc2ccccc21)c1ccc(NC(C)=O)cc1 (configuration not stated),> 59.6 µM (inactive)

row,Compound,IC50
1,COc1ccc(N(C(=O)Cn2nnc3ccccc32)C2(C(=O)NC3CCCC3)CCCCC2)cc1,> 59.6 µM (inactive)
2,CCCCOc1ccc(C(=O)Oc2cccnc2)cc1,1.61 µM
3,O=C1C(=O)N(CC2COc3ccccc3O2)c2ccccc21 (configuration not stated),> 59.6 µM (inactive)
4,Cc1ccc(C2CC(c3cccs3)=NN2C(=O)CCl)cc1 (configuration not stated),inactive
5,COc1ccc(N(Cc2cc(=O)[nH]c3ccccc23)C(=O)CCl)cc1,> 59.6 µM (inactive)
6,CC(C)c1ccc(N(C(=O)c2csnn2)C(C(=O)NC2CCCC2)c2cccnc2)cc1 (configuration not stated),> 59.6 µM (inactive)
7,Cc1cc(NC(=O)COn2nnc3ccc(S(C)(=O)=O)cc32)ccc1Br,> 59.6 µM (inactive)
8,Cn1cnc2cc(NC(=O)c3ccc(Cl)cc3)ccc21,3.28 µM
9,O=C(Nc1ccc(OCC(F)(F)C(F)F)c(C(F)(F)F)c1)c1ccccc1O,0.596 µM
10,O=C(/C=C/c1c(F)cccc1Cl)Nc1cccnc1,0.0628 µM
11,Cc1sc(NC(=O)CCl)c(C(=O)c2ccccc2)c1C,> 59.6 µM (inactive)
12,O=C(Oc1ccc(Cl)cc1N1C(=O)CCC1=O)c1ccco1,> 59.6 µM (inactive)
13,O=C(/C=C/c1cccs1)Nc1scc(-c2ccccc2)c1C(=O)O,0.0455 µM
14,COc1ccc(C(=O)n2c(SC)nc3cc4c(cc32)OCCO4)cc1,2.46 µM
15,O=C(Oc1cccnc1)c1ccc(Cl)cc1,7.99 µM
16,Cc1ccc2[nH]c3c(c2c1)CN(C(=O)CN1c2ccc(F)cc2CCC1C)CC3 (configuration not stated),> 59.6 µM (inactive)
17,CCOc1ccc2c(c1)C(=O)C(=O)N2CC1COc2ccccc2O1 (configuration not stated),> 59.6 µM (inactive)
18,CN(C)S(=O)(=O)c1cccc(NC(=O)CSc2cccc3cccnc23)c1,> 59.6 µM (inactive)
19,CCc1nc(N2CCN(C(=O)CCl)CC2)c2c3c(sc2n1)CC(C)CC3 (configuration not stated),> 59.6 µM (inactive)
20,Cc1ccc(C(=O)O)cc1NC(=S)NC(=O)c1ccc(COc2ccccc2)cc1,2.48 µM
21,COc1cc2c(cc1OC)C(c1cc(Br)ccc1F)N(C(=O)CCl)CC2 (configuration not stated),> 59.6 µM (inactive)
22,Cc1ccc(C2=NN(C(=O)CCl)C(c3ccco3)C2)o1 (configuration not stated),> 59.6 µM (inactive)
23,O=C(O)c1ccc2ncsc2c1,7.39 µM
24,CCc1cc(=O)oc2cc(OC(=O)c3ccco3)ccc12,> 59.6 µM (inactive)
25,O=C(c1cc(=O)[nH]c2ccccc12)N1CCN(c2cccc(C(F)(F)F)c2)CC1,> 59.6 µM (inactive)

row,Compound,IC50
1,CC(=O)c1cc(-c2ccccc2)[nH]c1N1CCCC1,inactive
2,O=c1[nH]c(=O)n(-c2ccccc2F)c(O)c1/C=C1\C=Nc2ccccc21,> 59.6 µM (inactive)
3,N#CCC(=O)N/N=C/c1c(-c2ccccc2)n(-c2ccccc2)c2ccccc12,> 59.6 µM (inactive)
4,Cc1ccc(/C=C/C(=O)c2cc(Br)ccc2OC(=O)c2ccco2)cc1,> 59.6 µM (inactive)
5,CC1(C)C2CC=C(/C=N/NC(=S)Nc3cccnc3)C1C2 (configuration not stated),> 59.6 µM (inactive)
6,Cc1cc(=O)oc2cc(NC(=O)Cc3ccccc3[N+](=O)[O-])ccc12,> 59.6 µM (inactive)
7,Cc1cc(C(=O)CCl)c(C)n1-c1cccc([N+](=O)[O-])c1,> 59.6 µM (inactive)
8,CCc1cccc(CC)c1N(COC)C(=O)Cn1nnc2ccccc21,> 59.6 µM (inactive)
9,Cc1cc(C)n(C(=O)c2ccc(C)c(Br)c2)n1,inactive
10,Cc1cc(C)c(N(C(=O)Cn2nnc3ccccc32)C(C(=O)NC(C)(C)C)c2ccsc2)c(C)c1 (configuration not stated),> 59.6 µM (inactive)
11,CC(C)C12CN(C(=O)c3ccccc3[N+](=O)[O-])CC(C(C)C)(CN(C(=O)c3ccccc3[N+](=O)[O-])C1)C2=O,> 59.6 µM (inactive)
12,COc1ccccc1/C=C/C(=O)c1cc(Br)ccc1OC(=O)c1ccco1,inactive
13,O=C(Cn1nnc2ccccc21)c1ccc(Br)cc1,2.3 µM
14,CC(=O)NC1C(=O)N(CCN2CCOCC2)c2ccc(F)cc21 (configuration not stated),> 59.6 µM (inactive)
15,CCC(C)(C)NC(=O)C(c1cccn1C)N(C(=O)Cn1nnc2ccccc21)c1ccc(NC(C)=O)cc1 (configuration not stated),> 59.6 µM (inactive)
16,COc1ccc(C(=O)Oc2cccnc2)cc1,> 59.6 µM (inactive)
17,Nc1ncc(Br)cc1S(=O)(=O)Nc1cc(C(F)(F)F)cc(C(F)(F)F)c1,> 59.6 µM (inactive)
18,Cc1nnc(SC(=O)N2c3ccccc3Sc3ccccc32)s1,> 59.6 µM (inactive)
19,NC(=O)CCn1c(C(=O)c2cc(Cl)c(N)c(Cl)c2)c2ccccc2[n+]1[O-],> 59.6 µM (inactive)
20,COc1ccc(C(C(=O)NCC2CCCO2)N(C(=O)Cn2nnc3ccccc32)c2ccc(NC(C)=O)cc2)cc1 (configuration not stated),> 59.6 µM (inactive)
21,COc1ccc(C2CC(c3cccs3)=NN2C(=O)CCl)cc1OC (configuration not stated),> 59.6 µM (inactive)
22,Cc1ccc(C(=O)Oc2ccc3c(c2)ncn3C)cc1,0.577 µM
